Results on six molecules are retold here after patent US12163955B2, “Antibodies to methotrexate and uses thereof” (Ark Diagnostics, Inc., priority 2023, dated 2024).

In series [1] the test system is MTX antibodies. The experiment in a line: Specificity in absence of MTX, cross-reactivity (MTX Assay). Format: binding, rabbit. The note with it: no MTX. An excerpt: “Cross-reactivity” refers to the reaction of an antibody with an antigen that was not used to induce that antibody. “Cross-reactivity” may be determined in a quantitative immunoassay by establishing a standard curve using known dilutions of the target analyte. The standard curve is then used to calculate the apparent concentration of the interfering substance present in various known amounts in samples assayed under similar condition. The cross-reactivity is the apparent concentration divided by the actual concentration multiplied by 100.
[…] Solvent controls were also prepared and tested.
Cross-reactivity with DAMPA was also tested DAMPA stock solution was spiked into negative serum pool without the presence of MTX.

Series [2] in a line: MTX Assay calibration curve (homogeneous enzyme immunoassay, Beckman AU680). It is filed as biochemical. The protocol:
The top clones (281H3/28K1, 321H1/32K2 and 64H1/64K1) were selected based on performance for larger scale production and purification (Table 5). These clones were then used for further studies. To make the initial antibody reagent, both clones were diluted to 100 μg/mL with antibody diluent. Then a 1:4 ratio mixture of […] to Clone 64H1/64K1 was made and spiked into antibody diluent. […]
The MTX Assay calibration range is from 0.00 to 1.30 μM. Calibration curves were generated on the Beckman AU680 by assaying each calibrator level in quadruplicate. The Beckman AU680 analyzer performs the nonlinear data analysis automatically using multi-parameter curve-fit math model. Typical calibrator separations are shown for the MTX Assay in Table 6. […] The calculation for feasibility lot percent modulation is shown below: • Max Rate=640.3 mA/min. • Negative Calibrator Rate=358.5 mA/min. • High Calibrator Rate (1.30 μM)=608.7 mA/min. • Total Curve ΔmA=High Cal. Rate−Negative Cal.

The conditions of series [3]: cited from earlier work.
Series [4] relates to MTX antibodies. In words: Specificity in absence of MTX, cross-reactivity (MTX Assay). It is filed as binding, rabbit. The note with it: Trimethoprim 150 μmol/L, Triamterene 25 μmol/L; for % Cross-reactivity: no MTX.
For series [5] the following is noted: single dose; within 15 minutes; cited from earlier work.
Series [6] can be described thus: Homogeneous enzyme immunoassay calibration curves with antibody clones and DAMP-Y-S-G6PDH conjugate. Format: biochemical. The note with it: antibody 200.0 μL/g. The protocol: MTX antibodies and enzyme conjugates may be advantageously used in accordance with the present disclosure in a homogeneous assay format to detect a MTX analyte in samples. Antibodies may be evaluated by known methods, such as, conjugate inhibition, conjugate modulation, calibration, cross-reactivity and spike-recovery. For these purposes, cloned antibodies (28H3-K1, 32H1-K2, 64H1-K1) is added into the antibody diluent to prepare the antibody reagent. The antibody reagent includes antibody as prepared above, buffer, salts, stabilizers, preservatives, NAD^+, and glucose-6-phosphate. Enzyme conjugate DAMP-Y-S-G6PDH is added into the conjugate diluent to prepare the enzyme conjugate reagent. The enzyme conjugate reagent includes the conjugate, buffer, stabilizers, salts, and preservatives.
A clinical chemistry analyzer useful to evaluate antibodies and enzyme conjugates in a homogeneous enzyme immunoassay format is the Beckman Coulter AU480 (Beckman Coulter, Brea, CA). The Beckman AU480 is an automated biochemistry spectrophotometer analyzer used by medical laboratories to process biological fluid specimens, such as urine, cerebrospinal fluid, oral fluids, plasma and serum. The analyzer is capable of maintaining a constant temperature, pipetting samples, mixing reagents, measuring light absorbance and timing the reaction accurately.
A homogeneous enzyme immunoassay is conducted using a liquid, ready-to-use, two reagent assay as described above. Typically, 2-15 μL MTX analyte-containing sample is incubated with 75-150 μL antibody reagent followed by the addition of the 50-100 μL enzyme conjugate reagent.
The assay is a homogeneous enzyme immunoassay technique used for the analysis of MTX in biological fluids. The assay is based on competition between MTX in the specimen and -MTX or MTX analog (DAMP derivatives of the current invention) labeled with the enzyme glucose-6-phosphate dehydrogenase (G6PDH) for antibody binding sites. Enzyme activity decreases upon binding to the antibody, so the drug concentration in the sample can be measured in terms of enzyme activity. Active enzyme converts nicotinamide adenine dinucleotide (NAD^+) to NADH, resulting in an absorbance change that is measured spectrophotometrically at 340 nm. […] The change in the absorbance at 340 nm can be measured spectrophotometrically and is proportional to the enzyme conjugate activity which in turn is related to analyte concentration (see FIG. 14).
MTX analyte antibodies and enzyme conjugate (DAMP-Y-S-G6PDH) were used in a homogeneous assay format to generate calibration curves using MTX standards as described in Example 12. Antibody reagents were prepared as described in Example 8 through 11 using DAMP-Y-KLH generated rabbit antibodies and cloned antibodies through B-cell. Enzyme conjugate DAMP-Y-S-G6PDH was used to prepare the conjugate reagent. A 6-point calibration curve was generated on the Beckman AU480 clinical chemistry analyzer as described in Examples 12. […]

“And” between values parts separate entries of the source, which are not always exact repeats. Equal entries are not always repeated.

With `CN(Cc1cnc2nc(N)nc(N)c2n1)c1ccc(C(=O)O)cc1` [DAMPA, 4-(((2,4-diaminopteridin-6-yl)methyl)(methyl)amino)benzoic acid], the “Apparent Conc.” value is 0.023 µmol/L in series [1] (DAMPA 0.04 μmol/L in negative serum pool); 0.052 µmol/L in series [1] (DAMPA 0.10 μmol/L in negative serum pool); 0.215 µmol/L in series [1] (DAMPA 0.50 μmol/L in negative serum pool); 0.187 µmol/L in series [1] (DAMPA 0.80 μmol/L in negative serum pool); 0.188 µmol/L in series [1] (DAMPA 1.00 μmol/L in negative serum pool). Further, the “% Cross-reactivity” value came to 57.50% in series [1] (DAMPA 0.04 μmol/L); 51.50% in series [1] (DAMPA 0.10 μmol/L); 42.93% in series [1] (DAMPA 0.50 μmol/L); 23.42% in series [1] (DAMPA 0.80 μmol/L); 18.80% in series [1] (DAMPA 1.00 μmol/L).

For `CN(Cc1cnc2nc(N)nc(N)c2n1)c1ccc(C(=O)N[C@@H](CCC(=O)O)C(=O)O)cc1` [MTX, (2S)-2-[[4-[(2,4-diaminopteridin-6-yl)methyl-methylamino]benzoyl]amino]pentanedioic acid], the Calibration curve separation was found to be 21.5 mA/min in series [2] (0.00-0.05 μM); 250.2 mA/min in series [2] (0.00-1.30 μM); 44.9 mA/min in series [2] (0.05-0.15 μM); 79.7 mA/min in series [2] (0.15-0.35 μM); 61.0 mA/min in series [2] (0.35-0.65 μM); 43.1 mA/min in series [2] (0.65-1.30 μM). Besides, the Calibrator rate in series [2] (Calibrator Conc. 0.00 μM) is listed as 358.5 mA/min; in series [2] (Calibrator Conc. 0.05 μM) it was 380.0 mA/min; in series [2] (Calibrator Conc. 0.15 μM), 424.8 mA/min; in series [2] (Calibrator Conc. 0.35 μM) it was 504.6 mA/min; in series [2] (Calibrator Conc. 0.65 μM), 565.6 mA/min; in series [2] (Calibrator Conc. 1.30 μM) it was 608.7 mA/min. In addition, in series [3] (following a 4-hour infusion, pediatric patients with osteosarcoma), the “MTX serum concentration reached” value was “up to 3100 μmol/L”. In addition, the MTX serum concentration result in series [3] (high dose therapy for osteosarcoma) is on record as “exceed 1000 μmol/L”. In addition, the “MTX decay curve level” value in series [3] (osteosarcoma, 72 hours) was “less than 0.3 μmol/L”.

In the case of `Nc1nc(N)c2nc(-c3ccccc3)c(N)nc2n1` [Triamterene], in series [4], the “No MTX Mean” value came out at 0.009 µmol/L and the “% Cross-reactivity” value was 0.03%.

For `COc1cc(Cc2cnc(N)nc2N)cc(OC)c1OC` [Trimethoprim], in series [4], the “No MTX Mean” value is 0.000 µmol/L and the “% Cross-reactivity” value was determined as 0.00%.

B1: glucarpidase: antidote that converts MTX into DAMPA and glutamate (protein, UniProt P06621 23-415, looked up)
Carboxypeptidase G2: ALAQKRDNVLFQAATDEQPAVIKTLEKLVNIETGTGDAEGIAAAGNFLEAELKNLGFTVTRSKSAGLVVGDNIVGKIKGRGGKNLLLMSHMDTVYLKGILAKAPFRVEGDKAYGPGIADDKGGNAVILHTLKLLKEYGVRDYGTITVLFNTDEEKGSFGSRDLIQEEAKLADYVLSFEPTSAGDEKLSLGTSGIAYVQVNITGKASHAGAAPELGVNALVEASDLVLRTMNIDDKAKNLRFNWTIAKAGNVSNIIPASATLNADVRYARNEDFDAAMKTLEERAQQKKLPEADVKVIVTRGRPAFNAGEGGKKLVDKAVAYYKEAGGTLGVEERTGGGTDAAYAALSGKPVIESLGLPGFGYHSDKAEYVDISAIPRRLYMAARLIMDLGAGK
In the case of B1, the “reduction of plasma MTX concentrations” value in series [5] is given as at least 97%.

B2: 32H1/32K2: rabbit recombinant monoclonal antibody to MTX, VH SEQ ID NO: 9, VL SEQ ID NO: 13 (antibody)
VH: METGLRWLLLVAVLKGVQCQSLEESGGDLVKPGASLTLTCTASGLSFSSSDHWICWVRQAPGKGLESVGCIYIGSGTFVSSGTTYFASWAKGRSIISKTSSTTVTLQMTSLTAADTATYFCARGFYYTDGSGGPSYLNLWGQGTLVTVSSGQPKAPSVFPLAPCCGDTPSSTVTLGCLVKGYLPEPVTVTWNSGTLTNGVRTFPSVRQSSGLYSLSSVVSVTSSSQPVTCNVAHPATNTKVDKTVAPSTCSKPTCPPPELLGGPSVFIFPPKPKDTLMISRTPEVTCVVVDVSQDDPEVQFTWYINNEQVRTARPPLREQQFNSTIRVVSTLPITHQDWLRGKEFKCKVHNKALPAPIEKTISKARGQPLEPKVYTMGPPREELSSRSVSLTCMINGFYPSDISVEWEKNGKAEDNYKTTPAVLDSDGSYFLYNKLSVPTSEWQRGDVFTCSVMHEALHNHYTQKSISRSPGK
VL: MDTRAPTQLLGLLLLWLPGARCADIVMTQTPASVEAAVGGTVTIKCQASQTIYSYLSWFQQKPGQPPKLLIYSASTLASGVSSRFKGSRSGTESTLTISDLECADAATYYCQSYMYSSSSSFGSTFGGGTEVVVKGDPVAPTVLIFPPAADQVATGTVTIVCVANKYFPDVTVTWEVDGTTQTTGIENSKTPQNSADCTYNLSSTLTLTSTQYNSHKEYTCKVTQGTTSVVQSFNRGDC
On to B2, for which the Separation in series [6] (0.00 to 0.05 μM) is listed as 103.5 ΔmA/min; in series [6] (0.00 to 1.20 μM), 209.7 ΔmA/min; in series [6] (0.05 to 0.15 μM) it was 105.7 ΔmA/min; in series [6] (0.25 to 0.50 μM), −0.9 ΔmA/min; in series [6] (0.50 to 1.20 μM), 0.3 ΔmA/min. Also, the Absorbance in series [6] (Cals 0.00 μM) was 0.4007 and 0.3982; in series [6] (Cals 0.05 μM), 0.5023 and 0.5035; in series [6] (Cals 0.15 μM), 0.6091 and 0.6080; in series [6] (Cals 0.50 μM), 0.6084 and 0.6093; in series [6] (Cals 1.20 μM), 0.6108 and 0.6075. Further, the “Average Rate” value in series [6] (Cals 0.00 μM) was 399.45 mA/min; in series [6] (Cals 0.05 μM), 502.90 mA/min; in series [6] (Cals 0.15 μM) it was 608.55 mA/min; in series [6] (Cals 0.50 μM), 608.85 mA/min; in series [6] (Cals 1.20 μM) it was 609.15 mA/min.
